According to paper PMC4948680 (European journal of pharmaceutical sciences : official …, 2016):

What was measured:
[1] = design: species or system humans
Protocol: (§1) Clearance kinetics in each organ was determined by exponential curve fitting. The time-integrated activity concentration (TIAC) was obtained by integration of this exponential curve folded with the decay curve of ^111In and ^177Lu.Mouse dosimetry was calculated for both ^177Lu and ^111In using the TIAC and the 25 g RADAR mouse absorbed dose rates per unit activity S for each source and target organ combination ([Keenan et al., 2010]; [Konijnenberg et al., 2014]).
Extrapolation of biodistribution uptake data in mice to humans was based on two options for interspecies scaling ([Stabin, 2008]). 1. (%IA/organ)human=[(%IA/g)mouse×Mmouse(kg)]×(m(g)/M(kg))human with m the organ mass and M the total body weight of mouse or human and with %IA/gand%IA/organ the percentage of the injected activity concentration and per organ, respectively. The mouse organ TIACs are multiplied with the ratio of mouse and human body weights Mmouse/Mhuman to obtain the extrapolated human TIAC, and this multiplied with the organ mass (from the MIRD standard man phantom) yields the residence time in each source organ. 2. (%IA/organ)human=(%IA/organ)mouse=(%IA/g)mouse×mmouse in this method the uptake per organ is extrapolated one-to-one from mouse to man. The extrapolated human residence time is obtained by multiplying the mouse TIAC or each source organ with its mouse organ mass. […]

[2] = design: species or system mice
Protocol: as §1

CSCC[C@H](NC(=O)[C@H](Cc1c[nH]c2ccccc12)NC(=O)CNC(=O)[C@H](Cc1ccc(O)cc1)NC(=O)[C@H](C)NC(=O)[C@@H](CCC(=O)O)NC(=O)[C@@H](CCC(=O)O)NC(=O)[C@@H](CCC(=O)O)NC(=O)[C@@H](CCC(=O)O)NC(=O)[C@@H](CCC(=O)O)NC(=O)[C@@H](CCC(=O)O)NC(=O)CN1CCN(CC(=O)O)CCN(CC(=O)O)CCN(CC(=O)O)CC1)C(=O)N[C@@H](CC(=O)O)C(=O)N[C@@H](Cc1ccccc1)C(N)=O [^111In-CP04, ^111In-DOTA-(DGlu)6-Ala-Tyr-Gly-Trp-Met-Asp-Phe-NH2, metal not drawn]
calculated absorbed dose for kidneys [1]: 27.5 mGy/220 MBq | expected whole body radiation dose (effective dose) [1]: 9.9 mSv | Absorbed dose per injected activity, Bone [2]: 9 mGy/MBq | Absorbed dose per injected activity, Kidneys [2]: 56 mGy/MBq | Absorbed dose per injected activity, Large intestine [2]: 7 mGy/MBq | Absorbed dose per injected activity, Liver [2]: 3 mGy/MBq | Absorbed dose per injected activity, Lungs [2]: 3 mGy/MBq | Absorbed dose per injected activity, Pancreas [2]: 5 mGy/MBq | Absorbed dose per injected activity, Small intestine [2]: 7 mGy/MBq | Absorbed dose per injected activity, Spleen [2]: 3 mGy/MBq | Absorbed dose per injected activity, Stomach wall [2]: 15 mGy/MBq | Absorbed dose per injected activity, Total body [2]: 4 mGy/MBq
